Assay results reported in the OPERA property sets (Mansouri et al. 2018).
Values after ≈ are worked out from the molar mass of the structure shown.

Conditions: not given

**Q.** With BrCC1CO1 (stereo not drawn) as the molecule, how does the logP read?
**A.** 0.85

**Q.** For COP(=S)(OC)Oc1c(Cl)cccc1C#N, which logP is on record?
**A.** 3.58

**Q.** For CCCCC(C)=NNC(N)=Nc1ccccc1, which logP is on record?
**A.** 2.05

**Q.** For CC1=CCC(=C(C)C)CC1, which logP is on record?
**A.** 4.47

**Q.** With CCCCNC(=S)NCCCC as the molecule, how does the logP read?
**A.** 2.75

**Q.** Which logP does the source give for NS(=O)(=O)c1cccc2ccccc12 here?
**A.** 1.55

**Q.** With Clc1cc(Cl)c(-c2cc(Cl)c(Cl)cc2Cl)cc1Cl as the molecule, how does the logP read?
**A.** 6.34

**Q.** With C[Si]1(C)O[Si](C)(C)O[Si](C)(C)O[Si](C)(C)O[Si](C)(C)O1 as the molecule, how does the logP read?
**A.** 8.03

**Q.** With COC1=C(OC)C(=O)C(C)=CC1=O as the molecule, how does the logP read?
**A.** 0.8

**Q.** Which logP does the source give for CC(=O)c1cc2c(cc1C)C(C)(C)C(C)CC2(C)C (stereo not drawn) here?
**A.** 5.7

**Q.** And the solubility?
**A.** 4.84 µM (≈ 1.25 µg/mL)

**Q.** Which solubility does the source give for CCCCCCCCCCCCOC(=O)c1ccc(N)cc1 here?
**A.** 0.0158 µM (≈ 0.00484 µg/mL)

Same assay, conditions: 20 °C

**Q.** With COc1cc(C(Cl)(Cl)Cl)cc(Cl)n1 as the molecule, how does the solubility read?
**A.** 43.3 µM (≈ 11.3 µg/mL)

**Q.** For CCN(C(=O)n1nnn(-c2ccccc2Cl)c1=O)C1CCCCC1, which solubility is on record?
**A.** 6.58 µM (≈ 2.3 µg/mL)

**Q.** With CCOS(=O)(=O)OCC as the molecule, how does the solubility read?
**A.** 45400 µM (≈ 7000 µg/mL)

**Q.** Which solubility does the source give for C=COC here?
**A.** 258000 µM (≈ 15000 µg/mL)

**Q.** With CC(C)COC(=O)C(C)C as the molecule, how does the solubility read?
**A.** 5240 µM (≈ 755 µg/mL)

Same assay, conditions: 22.0 °C

**Q.** For Cc1ccc(C(C)C)cc1, which log10 OH rate constant (cm³/molecule/s) is on record?
**A.** -10.8

Same assay, conditions: 23 °C

**Q.** With CC1=CCC(=C(C)C)CC1 as the molecule, how does the solubility read?
**A.** 69.7 µM (≈ 9.5 µg/mL)

**Q.** With C[Si]1(C)O[Si](C)(C)O[Si](C)(C)O[Si](C)(C)O[Si](C)(C)O1 as the molecule, how does the solubility read?
**A.** 0.0458 µM (≈ 0.017 µg/mL)

Same assay, conditions: 23.0 °C

**Q.** For CCC(C)OCOC(C)CC (stereo not drawn), which log10 OH rate constant (cm³/molecule/s) is on record?
**A.** -10.4

**Q.** With CCCCCC=O as the molecule, how does the log10 OH rate constant (cm³/molecule/s) read?
**A.** -10.5

**Q.** With O=C/C=C/c1ccccc1 as the molecule, how does the log10 OH rate constant (cm³/molecule/s) read?
**A.** -10.3

**Q.** With CCC(=O)CO as the molecule, how does the log10 OH rate constant (cm³/molecule/s) read?
**A.** -11.1

Same assay, conditions: 24 °C

**Q.** With Clc1cc(Cl)c(-c2cc(Cl)c(Cl)cc2Cl)cc1Cl as the molecule, how does the solubility read?
**A.** 0.00263 µM (≈ 0.00095 µg/mL)

Same assay, conditions: 24.0 °C

**Q.** Which log10 OH rate constant (cm³/molecule/s) does the source give for COc1ccccc1OC here?
**A.** -10.5

**Q.** Which log10 OH rate constant (cm³/molecule/s) does the source give for c1ccc(Oc2ccccc2)cc1 here?
**A.** -11

**Q.** For Clc1cc(Cl)cc(-c2ccccc2)c1, which log10 OH rate constant (cm³/molecule/s) is on record?
**A.** -11.4

**Q.** Which log10 OH rate constant (cm³/molecule/s) does the source give for C[Si]1(C)O[Si](C)(C)O[Si](C)(C)O[Si](C)(C)O1 here?
**A.** -12

Same assay, conditions: 25 °C

**Q.** Which solubility does the source give for Cc1ccc(C)cc1 here?
**A.** 1530 µM (≈ 162 µg/mL)

**Q.** With Clc1ccc(Cl)c(-c2ccccc2Cl)c1 as the molecule, how does the solubility read?
**A.** 1.55 µM (≈ 0.4 µg/mL)

**Q.** For CCCCOCCOC(=O)COc1ccc(Cl)cc1Cl, which solubility is on record?
**A.** 37.4 µM (≈ 12 µg/mL)

**Q.** With COc1cc(Cl)ccc1O as the molecule, how does the solubility read?
**A.** 31500 µM (≈ 5000 µg/mL)

**Q.** Which solubility does the source give for CN(C)c1ccc(N=Nc2ccc(N)cc2)cc1 here?
**A.** 25.5 µM (≈ 6.12 µg/mL)

**Q.** For Clc1ccc2ccccc2c1, which solubility is on record?
**A.** 71.9 µM (≈ 11.7 µg/mL)

**Q.** Which solubility does the source give for CCCCCCCCCl here?
**A.** 32.9 µM (≈ 4.89 µg/mL)

**Q.** Which solubility does the source give for CON(C)C(=O)Nc1ccc(Cl)c(Cl)c1 here?
**A.** 301 µM (≈ 75 µg/mL)

**Q.** Which solubility does the source give for O=[N+]([O-])c1ccc2c3c(cccc13)CC2 here?
**A.** 4.57 µM (≈ 0.91 µg/mL)

**Q.** With Cc1cccc(C)c1 as the molecule, how does the solubility read?
**A.** 1520 µM (≈ 161 µg/mL)

**Q.** For c1ccc(Oc2ccccc2)cc1, which solubility is on record?
**A.** 106 µM (≈ 18 µg/mL)

**Q.** For CCC(Cl)(Cl)Cl, which solubility is on record?
**A.** 12900 µM (≈ 1900 µg/mL)

**Q.** Which solubility does the source give for COc1c(O)c(Cl)c(Cl)c(Cl)c1Cl here?
**A.** 16 µM (≈ 4.2 µg/mL)

**Q.** For O=C(O)c1cccc(C(=O)O)c1, which solubility is on record?
**A.** 602 µM (≈ 100 µg/mL)

**Q.** With C[Se]C as the molecule, how does the solubility read?
**A.** 224000 µM (≈ 24400 µg/mL)

**Q.** With CCC(C)n1c(=O)[nH]c(C)c(Br)c1=O (stereo not drawn) as the molecule, how does the solubility read?
**A.** 3120 µM (≈ 815 µg/mL)

**Q.** Which solubility does the source give for Cc1ccc(C(C)C)cc1 here?
**A.** 174 µM (≈ 23.4 µg/mL)

**Q.** Which solubility does the source give for CC(=O)c1ccc(-c2ccccc2)cc1 here?
**A.** 489 µM (≈ 96 µg/mL)

**Q.** For CCCCCC1CCCC1, which solubility is on record?
**A.** 0.82 µM (≈ 0.115 µg/mL)

**Q.** Which solubility does the source give for CSc1ccccc1 here?
**A.** 4070 µM (≈ 506 µg/mL)

**Q.** For CCC(=O)OCC(C)C, which solubility is on record?
**A.** 13100 µM (≈ 1700 µg/mL)

**Q.** For C#CCBr, which solubility is on record?
**A.** 125000 µM (≈ 14900 µg/mL)

**Q.** For CS, which solubility is on record?
**A.** 320000 µM (≈ 15400 µg/mL)

**Q.** For CCCCCCCCCCCCCCCC, which solubility is on record?
**A.** 0.00397 µM (≈ 0.0009 µg/mL)

**Q.** Which solubility does the source give for Cl[C@H]1[C@H](Cl)[C@@H](Cl)[C@@H](Cl)[C@H](Cl)[C@H]1Cl (racemic) here?
**A.** 9.42 µM (≈ 2.74 µg/mL)

**Q.** With O=[N+]([O-])c1cc(Cl)ccc1Cl as the molecule, how does the solubility read?
**A.** 72.9 µM (≈ 14 µg/mL)

**Q.** For CCOc1nc(F)cc2nc(S(=O)(=O)Nc3c(Cl)cccc3C(=O)OC)nn12, which solubility is on record?
**A.** 37.2 µM (≈ 16 µg/mL)

Same assay, conditions: 25.0 °C

**Q.** Which log10 OH rate constant (cm³/molecule/s) does the source give for C/C(C=O)=C\C=C\C=O here?
**A.** -9.93

**Q.** For FC(F)OC(F)C(F)(F)F (stereo not drawn), which log10 OH rate constant (cm³/molecule/s) is on record?
**A.** -14.4

**Q.** With CSC(=O)N(C)C as the molecule, how does the log10 OH rate constant (cm³/molecule/s) read?
**A.** -10.9

**Q.** With CCNc1nc(Cl)nc(NCC)n1 as the molecule, how does the log10 OH rate constant (cm³/molecule/s) read?
**A.** -11

**Q.** Which log10 OH rate constant (cm³/molecule/s) does the source give for C=C(C)OC(C)=O here?
**A.** -10.2

**Q.** For O=C1C=CC(=O)c2ccccc21, which log10 OH rate constant (cm³/molecule/s) is on record?
**A.** -11.5

**Q.** For CC(C)c1ccc(NC(=O)N(C)C)cc1, which log10 OH rate constant (cm³/molecule/s) is on record?
**A.** -10.9

**Q.** With O=CC(F)F as the molecule, how does the log10 OH rate constant (cm³/molecule/s) read?
**A.** -11.8

**Q.** For FC(F)(F)C(F)(F)C(F)(F)C(F)(F)N(C(F)(F)C(F)(F)C(F)(F)C(F)(F)F)C(F)(F)C(F)(F)C(F)(F)C(F)(F)F, which log10 OH rate constant (cm³/molecule/s) is on record?
**A.** < -16.2

**Q.** With c1ccc(Nc2ccccc2)cc1 as the molecule, how does the log10 OH rate constant (cm³/molecule/s) read?
**A.** -9.71

**Q.** Which log10 OH rate constant (cm³/molecule/s) does the source give for CCOS(=O)(=O)OCC here?
**A.** -11.7

**Q.** Which log10 OH rate constant (cm³/molecule/s) does the source give for COCC(C)O (stereo not drawn) here?
**A.** -10.7

**Q.** Which log10 OH rate constant (cm³/molecule/s) does the source give for ClCCCCl here?
**A.** -12.1

**Q.** For C[Se]C, which log10 OH rate constant (cm³/molecule/s) is on record?
**A.** -10.2

**Q.** Which log10 OH rate constant (cm³/molecule/s) does the source give for Clc1c(Cl)c(Cl)c(Cl)c(Cl)c1Cl here?
**A.** -13.6

**Q.** With C=CCOC(F)(F)C(F)F as the molecule, how does the log10 OH rate constant (cm³/molecule/s) read?
**A.** -10.7

**Q.** Which log10 OH rate constant (cm³/molecule/s) does the source give for CCCCCCBr here?
**A.** -11.2

**Q.** With C=COC(C)=O as the molecule, how does the log10 OH rate constant (cm³/molecule/s) read?
**A.** -10.6

**Q.** With CCCC(C)=O as the molecule, how does the log10 OH rate constant (cm³/molecule/s) read?
**A.** -11.3

**Q.** For CC1=CCC(=C(C)C)CC1, which log10 OH rate constant (cm³/molecule/s) is on record?
**A.** -9.65

**Q.** For CC1(C)C2CCC(=O)C1C2 (stereo not drawn), which log10 OH rate constant (cm³/molecule/s) is on record?
**A.** -10.8

**Q.** For FC(Cl)C(F)(F)Cl (stereo not drawn), which log10 OH rate constant (cm³/molecule/s) is on record?
**A.** -13.9

**Q.** Which log10 OH rate constant (cm³/molecule/s) does the source give for ClC(Cl)C(Cl)Cl here?
**A.** -12.6

**Q.** For Cl[C@H]1[C@H](Cl)[C@@H](Cl)[C@@H](Cl)[C@H](Cl)[C@H]1Cl (racemic), which log10 OH rate constant (cm³/molecule/s) is on record?
**A.** -12.8

**Q.** Which log10 OH rate constant (cm³/molecule/s) does the source give for C[Si]1(C)O[Si](C)(C)O[Si](C)(C)O[Si](C)(C)O[Si](C)(C)O1 here?
**A.** -11.8

Same assay, conditions: 27.0 °C

**Q.** Which log10 OH rate constant (cm³/molecule/s) does the source give for Cc1ccc(C)o1 here?
**A.** -9.88

**Q.** With CC(=O)N(C)C as the molecule, how does the log10 OH rate constant (cm³/molecule/s) read?
**A.** -10.9
